The record followed here is PMC6222781, “Structural Optimization of Foldamer-Dendrimer Conjugates as Multivalent Agents against the Toxic Effects of Amyloid Beta Oligomers” (Molecules : A Journal of Synthetic Chemistry and Natural …, 2018).

This assay addresses T1, Aβ oligomers (Homo sapiens, UniProt P05067).
T1 construct: Ser^26 depsipeptide iso-Aβ (1–42) was used; made in house; host or cells: chemical peptide synthesis (no expression host)
As to the kind of experiment: Isothermal titration calorimetry (ITC) binding to Aβ oligomers. As to conditions: Table 2, ITC, PBS pH 7.4, 285 K. The procedure:
The binding affinities of 2b–2i to Aβ oligomers were tested in ITC experiments.
In this work, Ser^26 depsipeptide iso-Aβ (1–42) was used, which was synthesized and purified as described previously. The lyophilized iso-Aβ (1–42) was dissolved in MilliQ water to a concentration of 1 mg mL^−1, sonicated for 3 min and the pH was set to 7.0 to initiate an O to N acyl migration, whereby the native sequence can be readily formed. The sample was incubated at room temperature for 10 min. Then the pH was set to 11 and the sample was kept at room temperature for additional 2 h. After the incubation, the Aβ stock solution was aliquoted and stored at −20 °C until use. To obtain Aβ oligomers, the 1 mg mL^−1 aliquot was diluted to a final concentration of 50 μM with 26.67 mM PBS and the pH was set to 7.4 with 1 M HCl. The sample was incubated at 37 °C for 3 h.
Isothermal calorimetric titrations were performed with a Microcal VP-ITC microcalorimeter in pH 7.4 PBS buffer solution. In individual titrations, 10 µL portions of the ligand containing solution were repeatedly injected from the computer-controlled 300-µL microsyringe at intervals of 300 s into the Aβ oligomer solution prepared in the same buffer as the ligand. All measurements were carried out at 285 K. The Aβ concentration in the cell was 100 µM and the total ligand concentration was 250 µM in the syringe and the titration was stopped when the precipitation of the Aβ aggregates became excessive. Control experiments were performed by injecting the ligand into a cell containing buffer with no target, and the heats of dilution were subtracted from those measured in the presence of Aβ. The experimental data were fitted to the two independent site binding models by using a nonlinear least-squares procedure, with ΔHb, ΔHb’, Kd, Kd’ ([…]), n and n’ (number of binding sites for monomer), as adjustable parameters.
For orientation: Isothermal titration calorimetry measures the heat released or taken up as one component is titrated into another.

T1 sequence (P05067 672-713 limits assumed): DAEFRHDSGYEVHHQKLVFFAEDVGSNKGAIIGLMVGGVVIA

As to `CC(=O)N[C@@H](CCCCNC(=O)CCN1C(=O)CC(SC[C@H](NC(=O)CNC(=O)CNC(=O)[C@H]2CCCC[C@@H]2NC(=O)C[C@H](CC(=O)O)NC(=O)[C@H]2CCCC[C@@H]2NC(=O)[C@H]2CCCC[C@@H]2NC(=O)C[C@H](CCCNC(=N)N)NC(=O)[C@H]2CCCC[C@@H]2N)C(N)=O)C1=O)C(=O)NCC(=O)N[C@@H](CCCCNC(=O)CCN1C(=O)CC(SC[C@H](NC(=O)CNC(=O)CNC(=O)[C@H]2CCCC[C@@H]2NC(=O)C[C@H](CC(=O)O)NC(=O)[C@H]2CCCC[C@@H]2NC(=O)[C@H]2CCCC[C@@H]2NC(=O)C[C@H](CCCNC(=N)N)NC(=O)[C@H]2CCCC[C@@H]2N)C(N)=O)C1=O)C(=O)NCC(=O)N[C@@H](CCCCNC(=O)CCN1C(=O)CC(SC[C@H](NC(=O)CNC(=O)CNC(=O)[C@H]2CCCC[C@@H]2NC(=O)C[C@H](CC(=O)O)NC(=O)[C@H]2CCCC[C@@H]2NC(=O)[C@H]2CCCC[C@@H]2NC(=O)C[C@H](CCCNC(=N)N)NC(=O)[C@H]2CCCC[C@@H]2N)C(N)=O)C1=O)C(=O)NCC(=O)N[C@@H](CCCCNC(=O)CCN1C(=O)CC(SC[C@H](NC(=O)CNC(=O)CNC(=O)[C@H]2CCCC[C@@H]2NC(=O)C[C@H](CC(=O)O)NC(=O)[C@H]2CCCC[C@@H]2NC(=O)[C@H]2CCCC[C@@H]2NC(=O)C[C@H](CCCNC(=N)N)NC(=O)[C@H]2CCCC[C@@H]2N)C(N)=O)C1=O)C(N)=O` (some centres unmarked) [Compound 8], the “ΔG, first binding stage” value is -11.07 kcal/M; the “ΔH, first binding stage” value was found to be 2.31 kcal/M; the “ΔG, second binding stage” value is -8.48 kcal/M; the “ΔH, second binding stage” value was determined as 0.51 kcal/M.
The like results for `N=C(N)NCCC[C@@H](CC(=O)N[C@H]1CCCC[C@@H]1C(=O)N[C@H]1CCCC[C@@H]1C(=O)N[C@@H](CC(=O)O)CC(=O)N[C@H]1CCCC[C@@H]1C(=O)NCC(=O)NCC(=O)N[C@@H](CSSC[C@H](NC(=O)CNC(=O)CNC(=O)[C@H]1CCCC[C@@H]1NC(=O)C[C@H](CC(=O)O)NC(=O)[C@H]1CCCC[C@@H]1NC(=O)[C@H]1CCCC[C@@H]1NC(=O)C[C@H](CCCNC(=N)N)NC(=O)[C@H]1CCCC[C@@H]1NC(=O)CCC(=O)NCCOCCOCCNC(=O)[C@H]1CCCC[C@@H]1NC(=O)C[C@H](CC(=O)O)NC(=O)[C@H]1CCCC[C@@H]1NC(=O)[C@H]1CCCC[C@@H]1NC(=O)C[C@H](CCCNC(=N)N)NC(=O)[C@H]1CCCC[C@@H]1N)C(N)=O)C(N)=O)NC(=O)[C@H]1CCCC[C@@H]1NC(=O)CCC(=O)NCCOCCOCCNC(=O)[C@H]1CCCC[C@@H]1NC(=O)C[C@H](CC(=O)O)NC(=O)[C@H]1CCCC[C@@H]1NC(=O)[C@H]1CCCC[C@@H]1NC(=O)C[C@H](CCCNC(=N)N)NC(=O)[C@H]1CCCC[C@@H]1N` [Compound 9] were, in that order, -9.83 kcal/M, 6.01 kcal/M, -8.48 kcal/M and 1.18 kcal/M.
